Measured values from patent US20100022534A1, “2-BENZIMIDAZOLYL-6-MORPHOLINO-4- (AZETIDINE, PYRROLIDINE, PIPERIDINE OR AZEPINE) PYRIMIDINE DERIVATIVES AS PI3K AND MTOR INHIBITORS FOR THE TREATMENT OF PROLIFERATIVE DISORDERS” (AstraZeneca, priority 2006, published 2010).

Assays:
[1] = biological target: T1, p110α Type Ia human PI3K (Homo sapiens, UniProt P42336); assay: In vitro PI3K enzyme assay (AlphaScreen), Test (a); type: biochemical; conditions: read-out: IC50 versus p110α Type Ia human PI3K
T1 construct: full length DNA of each of the p110α, p110β and p110δ Type Ia human PI3K p110 isoforms; 6-His; made in house
T1 sequence (P42336 whole entry, canonical isoform): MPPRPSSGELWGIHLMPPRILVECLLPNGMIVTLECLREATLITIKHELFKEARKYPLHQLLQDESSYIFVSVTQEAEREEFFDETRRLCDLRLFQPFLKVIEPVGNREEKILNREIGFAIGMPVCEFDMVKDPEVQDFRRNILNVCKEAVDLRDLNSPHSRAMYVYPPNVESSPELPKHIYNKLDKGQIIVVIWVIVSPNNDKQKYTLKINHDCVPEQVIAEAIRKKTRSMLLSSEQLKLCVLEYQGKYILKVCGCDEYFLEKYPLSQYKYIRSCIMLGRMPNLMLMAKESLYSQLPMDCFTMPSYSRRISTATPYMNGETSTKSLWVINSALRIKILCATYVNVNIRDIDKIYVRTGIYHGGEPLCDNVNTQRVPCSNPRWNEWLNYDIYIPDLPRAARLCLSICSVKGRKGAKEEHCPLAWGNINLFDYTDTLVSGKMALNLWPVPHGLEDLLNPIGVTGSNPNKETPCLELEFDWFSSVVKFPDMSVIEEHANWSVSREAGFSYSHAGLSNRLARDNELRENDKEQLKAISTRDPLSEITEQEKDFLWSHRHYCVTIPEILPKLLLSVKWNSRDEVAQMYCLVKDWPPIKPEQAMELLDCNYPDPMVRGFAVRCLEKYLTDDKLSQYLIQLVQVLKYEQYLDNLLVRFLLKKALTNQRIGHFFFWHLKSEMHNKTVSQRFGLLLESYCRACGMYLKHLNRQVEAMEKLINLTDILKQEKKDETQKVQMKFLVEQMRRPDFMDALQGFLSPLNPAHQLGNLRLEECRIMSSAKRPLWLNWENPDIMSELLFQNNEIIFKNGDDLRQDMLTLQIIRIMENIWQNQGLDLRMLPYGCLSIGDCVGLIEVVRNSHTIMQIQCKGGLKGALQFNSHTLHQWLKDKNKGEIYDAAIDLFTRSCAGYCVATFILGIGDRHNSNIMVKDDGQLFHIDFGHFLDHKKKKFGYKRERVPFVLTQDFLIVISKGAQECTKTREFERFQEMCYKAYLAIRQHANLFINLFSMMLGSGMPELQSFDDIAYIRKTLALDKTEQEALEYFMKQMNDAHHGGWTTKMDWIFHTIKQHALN
T1 sequence (P27986 whole entry partner, canonical isoform): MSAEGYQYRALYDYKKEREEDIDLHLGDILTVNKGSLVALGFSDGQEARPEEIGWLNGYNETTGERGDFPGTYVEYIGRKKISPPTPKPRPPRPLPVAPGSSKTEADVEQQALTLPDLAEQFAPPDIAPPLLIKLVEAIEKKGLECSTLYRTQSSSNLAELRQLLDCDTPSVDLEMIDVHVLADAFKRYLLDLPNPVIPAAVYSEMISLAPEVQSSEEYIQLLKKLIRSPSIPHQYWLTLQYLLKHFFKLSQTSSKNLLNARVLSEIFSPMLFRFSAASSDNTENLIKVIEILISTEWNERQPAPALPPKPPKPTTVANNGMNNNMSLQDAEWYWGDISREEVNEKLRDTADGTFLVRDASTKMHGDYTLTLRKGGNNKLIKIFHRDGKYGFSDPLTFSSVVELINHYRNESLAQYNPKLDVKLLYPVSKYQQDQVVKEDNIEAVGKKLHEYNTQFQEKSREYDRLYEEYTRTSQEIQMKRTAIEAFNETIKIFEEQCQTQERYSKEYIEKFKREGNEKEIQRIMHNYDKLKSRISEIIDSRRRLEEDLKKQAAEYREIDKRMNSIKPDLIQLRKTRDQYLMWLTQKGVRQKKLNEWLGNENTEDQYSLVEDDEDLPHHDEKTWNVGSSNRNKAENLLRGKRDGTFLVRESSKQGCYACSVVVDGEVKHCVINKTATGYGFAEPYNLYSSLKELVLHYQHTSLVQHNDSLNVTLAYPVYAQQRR
Source text: (a) In Vitro PI3K Enzyme Assay
The assay used AlphaScreen technology (Gray et al., Analytical Biochemistry, 2003, 313: 234-245) to determine the ability of test compounds to inhibit phosphorylation by recombinant Type I PI3K enzymes of the lipid PI(4,5)P2.
DNA fragments encoding human PI3K catalytic and regulatory subunits were isolated from cDNA libraries using standard molecular biology and PCR cloning techniques. The selected DNA fragments were used to generate baculovirus expression vectors. In particular, full length DNA of each of the p110α, p110β and p110δ Type Ia human PI3K p110 isoforms (EMBL Accession Nos. HSU79143, S67334, Y10055 for p110α, p110β and p110δ respectively) were sub-cloned into a pDEST10 vector (Invitrogen Limited, Fountain Drive, Paisley, UK). The vector is a Gateway-adapted version of Fastbac1 containing a 6-His epitope tag. […]
Biotinylated-DiC8-PI(3,4,5)P3 (50 nM; Cell Signals Inc., Catalogue No. 107), recombinant purified GST-Grp1 PH protein (2.5 μM) and AlphaScreen Anti-GST donor and acceptor beads (100 ng; Packard Bioscience Limited, Station Road, Pangbourne, Berkshire, UK, Catalogue No. 6760603M) were added and the assay plates were left for about 5 to 20 hours at room temperature in the dark. The resultant signals arising from laser light excitation at 680 nm were read using a Packard AlphaQuest instrument. […]

[2] = test system: phosphorylation of Serine 473 in Akt; assay: In vitro phospho-Ser473 Akt assay in MDA-MB-468 cells, Test (c); type: cell-based; conditions: Homo sapiens, read-out: IC50, inhibition of phosphorylation of Serine 473 in Akt
Description: (c) In Vitro Phospho-Ser473 Akt Assay
This assay determines the ability of test compounds to inhibit phosphorylation of Serine 473 in Akt as assessed using Acumen Explorer technology (TTP LabTech Limited, Royston, Herts, SG8 6EE, UK), a plate reader that can be used to rapidly quantitate features of images generated by laser-scanning.
A MDA-MB-468 human breast adenocarcinoma cell line (LGC Promochem, Teddington, Middlesex, UK, Catalogue No. HTB-132) was routinely maintained at 37° C. with 5% CO2 up to a confluency of 70-90% in DMEM containing 10% FCS and 1% L-glutamine.
For the assay, the cells were detached from the culture flask using ‘Accutase’ (Innovative Cell Technologies Inc., San Diego, Calif., USA; Catalogue No. AT104) using standard tissue culture methods and resuspended in media to give 5.5×10^4 cells per ml. Aliquots (90 μl) were seeded into each of the inner 60 wells of a black ‘Costar’ 96-well plate (Corning Inc., NY, USA; Catalogue No. 3904) to give a density of ˜5000 cells per well. Aliquots (90 μl) of culture media were placed in the outer wells to prevent edge effects. [An alternative cell handling procedure involved the maintenance of the cells in a ‘SelecT’ robotic device (The Automation Partnership, Royston, Herts SG8 5WY, UK). Cells were resuspended in media to give 5×10^4 cells per ml. […]

| IC50 [1] | IC50 [2] | SMILES |
| --- | --- | --- |
| ~400 nM | ~100 nM | O=C(NC1CCN(c2cc(N3CCOCC3)nc(-n3c(C(F)F)nc4ccccc43)n2)CC1)[C@@H]1CCCN1 [Example 3, 2-(2-difluoromethylbenzimidazol-1-yl)-6-morpholino-4-(4-prolylaminopiperidin-1-yl)pyrimidine] |
| ~200 nM | ~10 nM | NCCC1CCN(c2cc(N3CCOCC3)nc(-n3c(C(F)F)nc4ccccc43)n2)CC1 [Example 1, 4-[4-(2-aminoethyl)piperidin-1-yl]-2-(2-difluoromethylbenzimidazol-1-yl)-6-morpholinopyrimidine] |
